Literature values as cited in patent US10194661B2, “Methods of making dazomet compositions” (priority 2013, dated 2019).

Assays:
bees such as honeybees = conditions: application to wood, which prevents exposure to bees

SMILES: CN=C=S [MITC, methyl isothiocyanate]
- share of dazomet decomposition products (major product) (dazomet exposed to wood or moist soils): approximately 98%

SMILES: CN1CSC(=S)N(C)C1 [dazomet, Tetrahydro-3,5-dimethyl-2H-1,3,5-thiadiazine-2-thione]
- theoretical maximum decomposition rate / stoichiometric conversion rate to MITC (in wood): approximately 45%
- toxicity to bees (bees such as honeybees): relatively non-toxic and harmless
